Earlier results as cited in publication PMC7098970, “Neurosteroids as Selective Inhibitors of Glycine Receptor Activity: Structure-Activity Relationship Study on Endogenous Androstanes and Androstenes” (Frontiers in Molecular Neuroscience, 2020).
Structures can show the parent of a compound that is named as a salt.

Legend:
recombinant GlyRs = system: recombinant GlyRs; design: method as in Maksay et al. (2001); conditions: expressed in frog oocytes; ref Maksay et al. (2001); read-out: IC50 for inhibition of recombinant GlyRs; cited from earlier work
GABAAR = system: GABAAR; design: method as in Park-Chung et al., 1999; conditions: ref Park-Chung et al., 1999; cited from earlier work

For C[C@]12CC[C@H](OS(=O)(=O)O)CC1=CCC1C2CC[C@]2(C)C(=O)CCC12 (stereo partly drawn) [DHEA sulfate], the IC50 (recombinant GlyRs) is given as 2.5 to 6.3 µM.
In the case of CC(=O)[C@H]1CC[C@H]2[C@@H]3CC[C@H]4C[C@H](O)CC[C@]4(C)[C@H]3CC[C@]12C [3α-hydroxy-5α-pregnane-20-one], the “Efficacy of potentiation of IGABA” value (GABAAR) is listed as 1373%.
In the case of CC(O)C1CCC2C3CCC4CC(O)CCC4(C)C3CCC12C (stereo not drawn) [20α-hydroxy analog], the “Efficacy of potentiation of IGABA” value (GABAAR) is given as 166%.
